The subject of data set [1] is Rat2 fibroblasts stably transformed with v-Src/Hu c-Src fusion gene. The data set is described as follows: Anchorage independent Src-transformed fibroblast proliferation assay. It counts as cell-based, rat. The settings on record: for IC50: Rat2, 120 h, suspension growth, MTS readout Day 5; for inhibition at 100 µM: read-out: Src cells % inh at 100 μM. The method, then:
Anchorage Independent Src-Transformed Fibroblast Proliferation Assay Rat2 fibroblasts stably transformed with a plasmid containing a CMV promotor controlled v-Src/Hu c-Src fusion gene in which the catalytic domain of human c-Src was inserted in place of the v-Src catalytic domain in the v-Src gene are used for the measurement of src dependent suspension growth. […] Multiple entries for a given compound indicate that it was tested multiple times.

[2] abbreviates: Rattus norvegicus, Table 1, read-out: Src cells IC50.
The mark [3] stands for this setting: Rattus norvegicus, Rat2, Table 1, at 100 μM.

Results on 22 compounds are retold here after patent US7276519B2, “Thieno[3,2-b]pyridine-6-carbonitriles and thieno[2,3-b]pyridine-5-carbonitriles as protein kinase inhibitors” (Wyeth, priority 2002, dated 2007).

Like-named read-outs stand apart in the source and are kept apart here.

On to `COc1cc(Nc2c(C#N)cnc3cc(-c4ccc(C(=O)O)cc4)sc23)c(Cl)cc1Cl` [Example 19, 4-{6-Cyano-7-[(2,4-dichloro-5-methoxyphenyl)amino]thieno[3,2-b]pyridine-2-yl]benzoic acid], for which the melting point was greater than 300 °C. In addition, the IC50 in data set [1] (setting [2]) was greater than 10 µM.
On to `COc1cc(Nc2c(C#N)cnc3cc(C)sc23)c(Cl)cc1Cl` [Example 9, 7-[(2,4-Dichloro-5-methoxyphenyl)amino]-2-methylthieno[3,2-b]pyridine-6-carbonitrile], for which the melting point was in the range of 213 to 214 °C. Further, the IC50 in data set [1] (setting [2]) is 20 µM.
As to `N#Cc1cnc2ccsc2c1Nc1ccc(Cl)cc1Cl` [Example 10, 7-[(2,4-Dichlorophenyl)amino]thieno[3,2-b]pyridine-6-carbonitrile], the melting point lay within 198 to 200 °C. For the same compound, the half-inhibitory concentration (IC50) in data set [1] (setting [2]) was 39 µM.
Take `N#Cc1cnc2ccsc2c1NCc1ccc(Cl)cc1Cl` [Example 13, 7-[(2,4-Dichlorobenzyl)amino]thieno[3,2-b]pyridine-6-carbonitrile]: the melting point is 215 to 216 °C. Besides, the inhibition at 10 µM in data set [1] (Rattus norvegicus, Rat2, Table 1, at 10 μM, read-out: Src cells % inh at 10 μM) was 34%.
In turn, `COc1cc(Nc2c(C#N)cnc3cc(-c4csc(C=O)c4)sc23)c(Cl)cc1Cl` [Example 37, 7-[(2,4-Dichloro-5-methoxyphenyl)amino]-2-(5-formylthien-3-yl)thieno[3,2-b]pyridine-6-carbonitrile] had a melting point of 259 to 261 °C. In addition, the IC50 in data set [1] (setting [2]) turned out to be 1.1 µM.
With `COc1cc(Nc2c(C#N)cnc3cc(-c4ccc(CN5CCCCC5)cc4)sc23)c(Cl)cc1Cl` [Example 18, 7-[(2,4-Dichloro-5-methoxyphenyl)amino]-2-[4-(piperidin-1-ylmethyl)phenyl]thieno[3,2-b]pyridine-6-carbonitrile], the melting point was in the range of 218 to 220 °C. In data set [1] (setting [2]), the concentration for half-maximal inhibition (IC50) came to 1 µM.
Consider `COc1cc(Nc2c(C#N)cnc3cc(-c4ccc(CO)cc4)sc23)c(Cl)cc1Cl` [Example 41, 7-[(2,4-Dichloro-5-methoxyphenyl)amino]-2-[4-(hydroxymethyl)phenyl]thieno[3,2-b]pyridine-6-carbonitrile], for which the melting point lay within 239 to 240 °C. Further, in data set [1] (setting [2]), the IC50 came out at 0.56 µM.
As for `COc1cc(Nc2c(C#N)cnc3sccc23)c(Cl)cc1Cl` [Example 5, 4-[(2,4-Dichloro-5-methoxyphenyl)amino]thieno[2,3-b]pyridine-5-carbonitrile], the melting point was in the range of 197 to 199 °C. In addition, in data set [1] (setting [2]), the 50% inhibitory concentration (IC50) amounted to 5.6 µM.
For `COc1cc(Nc2c(C#N)cnc3sc(C#CCN4CCN(C)CC4)cc23)c(Cl)cc1Cl` [Example 51, 4-[(2,4-Dichloro-5-methoxyphenyl)amino]-2-[3-(4-methylpiperazin-1-yl)prop-1-ynyl]thieno[2,3-b]pyridine-5-carbonitrile], the melting point was 175 °C (dec.). Besides, the IC50 in data set [1] (setting [2]) was 9.9 µM.
On to `COc1cc(Nc2c(C#N)cnc3sc(C#Cc4cccnc4)cc23)c(Cl)cc1Cl` [Example 52, 4-[(2,4-Dichloro-5-methoxyphenyl)amino]-2-(pyridin-3-ylethynyl)thieno[2,3-b]pyridine-5-carbonitrile], for which the melting point was 191 °C (dec.). In data set [1] (setting [3]), the inhibition at 100 µM was 61%.
Compound `N#Cc1cnc2ccsc2c1Oc1ccc(Cl)cc1Cl` [Example 11, 7-[(2,4-Dichlorophenoxy)]thieno[3,2-b]pyridine-6-carbonitrile] showed a melting point of 158 to 160 °C. Besides, the IC50 in data set [1] (setting [2]) amounted to 23 µM.
As for `N#Cc1cnc2cc(/C=C/c3ccncc3)sc2c1Nc1ccc(Oc2ccccc2)cc1` [Example 49, 7-[(4-Phenoxyphenyl)amino]-2-[(E)-2-pyridin-4-ylethenyl]thieno[3,2-b]pyridine-6-carbonitrile], the melting point is 240 to 241 °C. For the same compound, in data set [1] (setting [3]), the inhibition at 100 µM is 14%.
On the same counts, the results for `COc1cc(Nc2c(C#N)cnc3cc(I)sc23)cc(OC)c1OC` [Example 47, 2-Iodo-7-[(3,4,5-trimethoxyphenyl)amino]thieno[3,2-b]pyridine-6-carbonitrile] are 254 to 256 °C and 74%.
`COc1cc(Nc2c(C#N)cnc3cc(-c4ccc(C=O)cc4)sc23)c(Cl)cc1Cl` [Example 14, 7-[(2,4-Dichloro-5-methoxyphenyl)amino]-2-(4-formylphenyl)thieno[3,2-b]pyridine-6-carbonitrile] came in with a melting point of 261 to 262 °C. In addition, in data set [1] (setting [2]), the IC50 stood at 0.66 µM.
On the same counts, the results for `CN1CCN(Cc2ccc(-c3cc4ncc(C#N)c(Nc5ccc(Oc6ccccc6)cc5)c4s3)cc2)CC1` [Example 44, 2-[4-(4-Methylpiperazin-1-ylmethyl)phenyl]-7-[(4-phenoxyphenyl)amino]thieno[3,2-b]pyridine-6-carbonitrile] are 199 to 201 °C and 2.4 µM.
In turn, `COc1cc(Nc2c(C#N)cnc3cc(-c4cccc(CN5CCOCC5)c4)sc23)c(Cl)cc1Cl` [Example 26, 7-[(2,4-Dichloro-5-methoxyphenyl)amino]-2-[3-(morpholin-4-ylmethyl)phenyl]thieno[3,2-b]pyridine-6-carbonitrile] yielded a melting point of 205 to 207 °C. For the same compound, in data set [1] (setting [2]), the IC50 was found to be 1 µM.
`N#Cc1cnc2cc(I)sc2c1Nc1ccc(Oc2ccccc2)cc1` [Example 42, 2-Iodo-7-[(4-phenoxyphenyl)amino]thieno[3,2-b]pyridine-6-carbonitrile] came in with a melting point of 260 to 262 °C. The inhibition at 100 µM in data set [1] (setting [3]) is 5%.
For `COc1cc(Nc2c(C#N)cnc3cc(C#Cc4cccnc4)sc23)c(Cl)cc1Cl` [Example 35, 7-[(2,4-Dichloro-5-methoxyphenyl)amino]-2-(pyridin-3-ylethynyl)thieno[3,2-b]pyridine-6-carbonitrile], the melting point is 249 to 250 °C. Besides, in data set [1] (setting [2]), the half-inhibitory concentration (IC50) is 0.98 µM.
In the case of `COc1cc(Nc2c(C#N)cnc3cc(-c4cccc(C=O)c4)sc23)c(Cl)cc1Cl` [Example 25, 7-[(2,4-Dichloro-5-methoxyphenyl)amino]-2-(3-formylphenyl)thieno[3,2-b]pyridine-6-carbonitrile], the melting point was 262 to 263 °C. The IC50 in data set [1] (setting [2]) was 1.1 µM.
As to `COc1cc(Nc2c(C#N)cnc3sc(-c4ccc(C=O)cc4)cc23)c(Cl)cc1Cl` [Example 27, 4-[(2,4-Dichloro-5-methoxyphenyl)amino]-2-(4-formylphenyl)thieno[2,3-b]pyridine-5-carbonitrile], the melting point was greater than 240 °C. For the same compound, the inhibition at 100 µM in data set [1] (setting [3]) came out at 19%. In addition, the “Src cells % inh at 100 μM” value in data set [1] (Table 1, at 100 μM) was determined as 28%.
In turn, `COc1cc(Nc2c(C#N)cnc3cc(-c4cc5ccccc5o4)sc23)c(Cl)cc1Cl` [Example 24, 2-(1-Benzofuran-2-yl)-7-[(2,4-dichloro-5-methoxyphenyl)amino]thieno[3,2-b]pyridine-6-carbonitrile] displayed a melting point of 281 to 282 °C. Moreover, the IC50 in data set [1] (setting [2]) was determined as 3.8 µM.
The compound `COc1cc(Nc2c(C#N)cnc3cc(C#C[Si](C)(C)C)sc23)c(Cl)cc1Cl` [Example 32, 7-[(2,4-Dichloro-5-methoxyphenyl)amino]-2-[(trimethylsilyl)ethynyl]thieno[3,2-b]pyridine-6-carbonitrile] showed a melting point of 169 to 171 °C. The IC50 in data set [1] (Rattus norvegicus, read-out: Src cells IC50 μM, Table 1) is 1.5 µM.

As usually defined, the IC50 is the concentration at which inhibition is half-maximal. The melting point is the temperature of the solid-liquid transition.
